# Test results: paper PMC6063804 (EJNMMI Research, 2018)
# Several values for one entry are separate records, joined by “and”; a condition that tells them apart may be missing. Identical values can stand only once. Like-named read-outs stand apart in the source and are kept apart here.
# Columns and labels:
# [1] = format: in vivo, human; settings: for activity that could not be extracted / mean parent fraction: plasma; for mean parent fraction: all 20 scans
# Description: All subjects received a radial artery cannula for continuous and manual arterial sampling. For each scan, an arterial input function was obtained using an on-line blood sampler (Veenstra Instruments, Joure, The Netherlands) with a withdrawal rate of 5 mL · min^−1 during the first 5 min and 2.5 mL · min^−1 from 5 to 60 min post injection (p.i.) in order to stay within blood volume sampling constraints. Continuous blood withdrawal was interrupted briefly to manually collect arterial blood samples (10 mL each) at set timepoints (5, 10, 20, 40, 60, 75, 90, 120 min p.i.). In several subjects, an arterial sample was taken immediately before PET and incubated with [^18F]PK-209 at 37 °C to compare radioactivity recovery fractions throughout the 120 min with extracted fractions of the arterial samples taken during PET. The samples were used to measure blood and plasma radioactivity concentrations, whole blood-to-plasma ratios, and plasma metabolite fractions of [^18F]PK-209. For the latter purpose, samples were analyzed using solid-phase extraction combined with HPLC using off-line radioactivity detection.
# The final arterial plasma input function was derived using both continuous and discrete arterial blood data. The input function was corrected for plasma to whole blood ratio, metabolites, and time delay. For each scan, two additional plasma input functions were generated to investigate the effect of within-subject and between-subject variability in plasma data. For the within-subject averaged input function, the mean of PET1 and PET2 [^18F]PK-209 parent fractions per subject were used at each of the eight sample timepoints for both scans. For the population-averaged input function, the mean parent fractions for all five subjects in the TRT and ketamine groups (i.e., 10 scans) were taken at each timepoint. The manual arterial blood samples were also used for assessment of the plasma ketamine concentration. The area under the ketamine concentration–time curve was estimated by means of the trapezoidal rule.
# The absolute percentage TRT variability of kinetic parameters between test and retest scans was calculated using the equation TRT variability = 2 · (ρretest − ρtest)/(ρtest + ρretest) · 100, where ρ is the kinetic parameter of interest. The between-subject coefficient of variation was calculated as the standard deviation divided by the sample mean · 100. […] SUV from 90 to 120 min (SUV90–120) was calculated as the mean of the last three mid-frame SUV values.
# ion channel of NMDA-R [2] = system: ion channel of NMDA-R; parameters: method as in PMID 25451213; settings: cited from earlier work
# [3] = cited from earlier work
# ion channel of NMDA-R [4] = molecular target: ion channel of NMDA-R; parameters: method as in PMID 25648682; settings: preclinical; read-out: apparent affinity against [^3H]MK-801 (Ki); cited from earlier work
# [5] = ex vivo rodent, cited from earlier work
compound,measurement,setting,value
"CSc1ccc(Cl)c(NC(=N)N(C)c2cccc(OC[18F])c2)c1 [[^18F]PK-209, 3-(2-chloro-5-(methylthio)phenyl)-1-(3-([^18F]fluoromethoxy)phenyl)-1-methylguanidine]",difference in mean blood-to-plasma ratios between test–retest and between baseline–ketamine scans,[1]; all eight measured timepoints,< 3%
same,"peak radioactivity concentration in plasma, mean SUV",[1]; arterial plasma,17.4 ± 2.8
same,plasma radioactivity as % of the peak,[1]; at 3 min,~ 7%
same,fractional recovery of radioactivity from plasma,"[1]; declined over time, stabilizing",approximately 45%
same,activity that could not be extracted,[1]; 5 min p.i.,15 ± 3%
same,activity that could not be extracted,[1]; 120 min p.i.,54 ± 4%
same,mean parent fraction,[1]; 5 min p.i.,77 ± 7%
same,mean parent fraction,[1]; 10 min p.i.,57 ± 9% and 57%
same,mean parent fraction,[1]; 20 min p.i.,34 ± 5% and 34%
same,mean parent fraction,[1]; 60 min p.i.,19 ± 3%
same,mean parent fraction,[1]; 120 min p.i.,14 ± 3%
same,parent fractions in baseline scans lower than the test–retest group,"[1]; subjects 6 to 10, average",16%
same,selectivity for the ion channel of NMDA-R over other targets,ion channel of NMDA-R [2],high selectivity
same,"LogDoct,7.4",[3],1.45
same,K i,ion channel of NMDA-R [4],18 nM
same,non-polar metabolite fraction in brain,[5]; 15 min p.i.,18%
same,non-polar metabolite fraction in brain,[5]; 60 min p.i.,25%
same,"polar metabolites, contribution to total brain radioactivity",[5]; 60 min p.i.,4%
